The record followed here is patent US10105357B2, “Indication of antibiotic drugs for preparation of cancer inhibition pharmaceutical composition” (LAUNX BIOMEDICAL CO., LTD., priority 2014, dated 2018).

Where two headings read alike, the source gives them in different places.

For test [1], the system named is PC3 (p53−) (Prostate Adenocarcinoma). The test can be described thus: Cell viability analysis, prostate cancer PC3. The conditions noted are these: Homo sapiens. It is filed as cell-based, human.
The test system of test [2] is HepG2 (Hepatocellular Carcinoma). Nature of the test: Cell viability analysis, hepatic cancer HepG2. The class given is cell-based, human. The conditions noted are these: Homo sapiens.
Test [3] deals with A549 (Lung Adenocarcinoma). Nature of the test: Cell viability analysis, lung cancer A549. It is filed as cell-based, human. The conditions noted are these: Homo sapiens.
For test [4], the system named is HI650 (Lung Adenocarcinoma). Nature of the test: Cell viability analysis, lung cancer HI650. The class given is cell-based, human. The note with it: Homo sapiens.
Test [5] concerns HL-60 (Acute Promyelocytic Leukemia). Nature of the test: Cell viability analysis, leukemia HL-60. It is filed as cell-based, human. The note with it: Homo sapiens.
The subject of test [6] is MKN-45 (Gastric Adenocarcinoma). The test can be described thus: Cell viability analysis, gastric cancer MKN-45. It is filed as cell-based, human. The note with it: Homo sapiens.
The test system of test [7] is A375 (Amelanotic Melanoma). The test can be described thus: Cell viability analysis, skin cancer A375. The class given is cell-based, human. The note with it: Homo sapiens.
Test [8] deals with LoVo (Colorectal Adenocarcinoma). The test can be described thus: Cell viability analysis, colon cancer LoVo. The note with it: Homo sapiens, LoVo. It is filed as cell-based, human.
For test [9], the system named is TSGH-8301 (Urinary Bladder Carcinoma). Nature of the test: Cell viability analysis, bladder cancer TSGH-8301. The class given is cell-based, human. The note with it: Homo sapiens.
The subject of test [10] is HeLa (Cervix Adenocarcinoma). The test can be described thus: Cell viability analysis, cervical cancer HeLa. It is filed as cell-based, human. The conditions noted are these: Homo sapiens, HeLa.
The subject of test [11] is MCF7 (Mammary Gland, Adenocarcinoma). The test can be described thus: Cell viability analysis, breast cancer MCF7. The class given is cell-based, human. The conditions noted are these: Homo sapiens.
Test [12] deals with HCT116 (p53+) (Colorectal Carcinoma). Nature of the test: cells. The note with it: Homo sapiens, HCT-116, 72 h, read-out: cell viability (survival rate), HCT116.
The subject of test [13] is AGS (Gastric Adenocarcinoma). Nature of the test: Cell viability analysis, gastric cancer AGS. The conditions noted are these: Homo sapiens. It is filed as cell-based, human.
The next test has as its system cancer cell lines. The test can be described thus: Cell viability analysis (WST-1) on cancer cell lines. The class given is cell-based, human. The note with it: drug 10 μM, 72 hours, WST-1; Table 3. For orientation: Tetrazolium assays rely on reduction of a dye to a coloured formazan, in cell work by metabolically active cells.
The mark [14] stands for this setting: 72 h, read-out: cell viability (survival rate), PC3, drug 10 μM, 72 hours, WST-1, OD450 nm.
Setting [15] is: HepG2, 72 h, read-out: cell viability (survival rate), HepG2, drug 10 μM, 72 hours, WST-1, OD450 nm.
The mark [16] stands for this setting: A549, 72 h, read-out: cell viability (survival rate), A549, drug 10 μM, 72 hours, WST-1, OD450 nm.
Where [17] appears, read: NCI-H1650, 72 h, read-out: cell viability (survival rate), H1650, drug 10 μM, 72 hours, WST-1, OD450 nm.
Where [18] appears, read: HL-60, 72 h, read-out: cell viability (survival rate), HL-60, drug 10 μM, 72 hours, WST-1, OD450 nm.
Setting [19] is: MKN-45, 72 h, read-out: cell viability (survival rate), MKN-45, drug 10 μM, 72 hours, WST-1, OD450 nm.
[20] abbreviates: A-375, 72 h, read-out: cell viability (survival rate), A375, drug 10 μM, 72 hours, WST-1, OD450 nm.
Setting [21] is: 72 h, read-out: cell viability (survival rate), LoVo, drug 10 μM, 72 hours, WST-1, OD450 nm.
The mark [22] stands for this setting: 72 h, read-out: cell viability (survival rate), TSGH, drug 10 μM, 72 hours, WST-1, OD450 nm.
[23] abbreviates: 72 h, read-out: cell viability (survival rate), HeLa, drug 10 μM, 72 hours, WST-1, OD450 nm.
The mark [24] stands for this setting: MCF7, 72 h, read-out: cell viability (survival rate), MCF7, drug 10 μM, 72 hours, WST-1, OD450 nm.
Where [25] appears, read: 72 h, read-out: cell viability (survival rate), AGS, drug 10 μM, 72 hours, WST-1, OD450 nm.
Where [26] appears, read: 72 h, drug 10 μM, 72 hours, WST-1, OD450 nm, read-out: cell viability (survival rate), PC3.
The mark [27] stands for this setting: HepG2, 72 h, drug 10 μM, 72 hours, WST-1, OD450 nm, read-out: cell viability (survival rate), HepG2.
Where [28] appears, read: A549, 72 h, drug 10 μM, 72 hours, WST-1, OD450 nm, read-out: cell viability (survival rate), A549.
The mark [29] stands for this setting: NCI-H1650, 72 h, drug 10 μM, 72 hours, WST-1, OD450 nm, read-out: cell viability (survival rate), H1650.
[30] abbreviates: HL-60, 72 h, drug 10 μM, 72 hours, WST-1, OD450 nm, read-out: cell viability (survival rate), HL-60.
The mark [31] stands for this setting: MKN-45, 72 h, drug 10 μM, 72 hours, WST-1, OD450 nm, read-out: cell viability (survival rate), MKN-45.
[32] abbreviates: A-375, 72 h, drug 10 μM, 72 hours, WST-1, OD450 nm, read-out: cell viability (survival rate), A375.
Setting [33] is: 72 h, drug 10 μM, 72 hours, WST-1, OD450 nm, read-out: cell viability (survival rate), TSGH.
The mark [34] stands for this setting: 72 h, drug 10 μM, 72 hours, WST-1, OD450 nm, read-out: cell viability (survival rate), HeLa.
[35] abbreviates: MCF7, 72 h, drug 10 μM, 72 hours, WST-1, OD450 nm, read-out: cell viability (survival rate), MCF7.
[36] abbreviates: 72 h, drug 10 μM, 72 hours, WST-1, OD450 nm, read-out: cell viability (survival rate), AGS.

Turning to `COC(=O)C1=CO[C@@H](O[C@@H]2O[C@H](CO)[C@@H](O)[C@H](O)[C@H]2O)[C@@H]2C(CO)=CC[C@H]12` [Geniposide], the viability at 10 µM in test [1] (drug 10 μM, 72 hours, WST-1, OD450 nm, read-out: cell viability (survival rate), PC3) came to 65.5%; in [2] (HepG2, drug 10 μM, 72 hours, WST-1, OD450 nm, read-out: cell viability (survival rate), HepG2), 88.6%; in test [3] (A549, drug 10 μM, 72 hours, WST-1, OD450 nm, read-out: cell viability (survival rate), A549), 63.7%; in test [4] (NCI-H1650, drug 10 μM, 72 hours, WST-1, OD450 nm, read-out: cell viability (survival rate), H1650), 71.2%; in test [5] (HL-60, drug 10 μM, 72 hours, WST-1, OD450 nm, read-out: cell viability (survival rate), HL-60), 120%; in test [6] (MKN-45, drug 10 μM, 72 hours, WST-1, OD450 nm, read-out: cell viability (survival rate), MKN-45), 45.6%. In addition, the viability at 10 µM in [7] (A-375, drug 10 μM, 72 hours, WST-1, OD450 nm, read-out: cell viability (survival rate), A375) was found to be 73.4%; in test [8] (drug 10 μM, 72 hours, WST-1, OD450 nm, read-out: cell viability (survival rate), LoVo) it was 74.1%; in test [9] (drug 10 μM, 72 hours, WST-1, OD450 nm, read-out: cell viability (survival rate), TSGH) it was 53.1%; in test [10] (drug 10 μM, 72 hours, WST-1, OD450 nm, read-out: cell viability (survival rate), HeLa), 81%; in test [11] (MCF7, drug 10 μM, 72 hours, WST-1, OD450 nm, read-out: cell viability (survival rate), MCF7), 73.8%; in test [12] it was 73.9%. Moreover, the viability at 10 µM in test [13] (drug 10 μM, 72 hours, WST-1, OD450 nm, read-out: cell viability (survival rate), AGS) turned out to be 54.2%.
Turning to `O[C@@H]1CO[C@H]2[C@@H]1OC[C@@H]2O` [Isosorbide], the viability at 10 µM in test [1] (setting [14]) came out at 94.3%; in test [2] (setting [15]), 90.1%; in test [3] (setting [16]), 60.7%; in [4] (setting [17]), 73.3%; in [5] (setting [18]), 125%; in [6] (setting [19]), 93.1%. The viability at 10 µM in [7] (setting [20]) was 53.5%; in test [8] (setting [21]), 81.8%; in [9] (setting [22]) it was 77.5%; in test [10] (setting [23]), 72.8%; in [11] (setting [24]) it was 78.6%; in [12], 55.1%. Further, the viability at 10 µM in test [13] (setting [25]) came to 69%.
`CO[C@@]1(NC(=O)C(C(=O)O)c2ccc(O)cc2)C(=O)N2C(C(=O)O)=C(CSc3nnnn3C)CO[C@@H]21` (stereo partly shown) [Moxalactam Disodium]: the viability at 10 µM in test [1] (setting [14]) amounted to 95%; in [2] (setting [15]) it was 79.1%; in [3] (setting [16]) it was 76.6%; in [4] (setting [17]), 66.9%; in [6] (setting [19]) it was 110%; in [7] (setting [20]), 80.8%. Besides, the viability at 10 µM turned out to be 94% in test [8] (setting [21]); 55.9% in test [9] (setting [22]); 61.3% in test [10] (setting [23]); 80.7% in [11] (setting [24]); 73.9% in test [12]; 76.9% in test [13] (setting [25]). In addition, the “inhibition effect on different cancer cell lines” value in the test with cancer cell lines is reported as “significant inhibition effect”.
As to `CC(=O)Nc1ncc([N+](=O)[O-])s1` [Nithiamide], the viability at 10 µM in test [1] (setting [26]) was 74.5%; in [2] (setting [27]) it was 94.8%; in test [3] (setting [28]), 39.3%; in test [4] (setting [29]), 67.1%; in test [5] (setting [30]) it was 102%; in test [6] (setting [31]), 76.7%. In addition, the viability at 10 µM in test [7] (setting [32]) is 96.7%; in test [8] (setting [21]), 89.8%; in test [9] (setting [33]) it was 122%; in test [10] (setting [34]), 83%; in test [11] (setting [35]) it was 65.5%; in test [12], 86.9%. Further, the viability at 10 µM in test [13] (setting [36]) is 102%.
Turning to `CN(C)[C@@H]1C(O)=C(C(=O)NCN2CCCC2)C(=O)[C@@]2(O)C(O)=C3C(=O)c4c(O)cccc4[C@@](C)(O)[C@H]3C[C@@H]12` [Rolitetracycline], the viability at 10 µM in test [1] (setting [14]) was found to be 105%; in test [2] (setting [15]), 71.2%; in test [3] (setting [16]), 112%; in test [4] (setting [17]), 113%; in test [5] (setting [18]), 102%; in test [6] (setting [19]), 95.7%. The viability at 10 µM stood at 82.5% in test [7] (setting [20]); 86.1% in test [8] (setting [21]); 54.3% in test [9] (setting [22]); 53.9% in test [10] (setting [23]); 88.8% in test [11] (setting [24]); 67.7% in test [12]. For the same molecule, the viability at 10 µM in test [13] (setting [25]) was 61.1%.
On to `OC[C@H]1O[C@H](O[C@]2(CCl)O[C@H](CCl)[C@@H](O)[C@@H]2O)[C@H](O)[C@@H](O)[C@H]1Cl` [Sucralose], for which the viability at 10 µM in [1] (setting [26]) came to 78.8%; in test [2] (setting [27]), 95.3%; in [3] (setting [28]), 74.3%; in test [4] (setting [29]) it was 72%; in test [5] (setting [30]), 88.5%; in [6] (setting [31]), 94.1%. In addition, the viability at 10 µM in [7] (setting [32]) was found to be 83.3%; in test [8] (setting [21]), 73.8%; in test [9] (setting [33]) it was 94.3%; in test [10] (setting [34]), 77.9%; in [11] (setting [35]), 71.2%; in [12], 54.8%. Moreover, the viability at 10 µM in test [13] (setting [36]) amounted to 66.7%.
With `NC(CO)(CO)CO` [Trometamol], the viability at 10 µM in [1] (setting [14]) amounted to 97%; in test [2] (setting [15]), 96.7%; in test [3] (setting [16]), 79.5%; in [4] (setting [17]), 95.4%; in test [5] (setting [18]), 91.3%; in test [6] (setting [19]), 88.3%. For the same molecule, the viability at 10 µM in test [7] (setting [20]) turned out to be 126%; in test [8] (setting [21]) it was 68%; in test [9] (setting [22]), 102%; in [10] (setting [23]) it was 90.9%; in [11] (setting [24]) it was 98.8%; in test [12], 90.4%. The viability at 10 µM in [13] (setting [25]) was determined as 78.1%.

What is called viability is a read-out of living cells in per cent, often relative to untreated cells.
